# Article PMC11620503 (Antimicrobial Agents and Chemotherapy, 2024)
# Several values for one entry are separate records, joined by “and”; a condition that tells them apart may be missing. Equal values may be shown once. Read-outs that look alike come from different tables or passages of the source. Marks after values point to notes of the source that are not given here.
# Experiments:
# CTX-M-14 = CTX-M-14 (Escherichia coli, UniProt Q9L5C7); assay: Ki app determination (Waley's method)
# CTX-M-15 = CTX-M-15 (Escherichia coli, UniProt Q9EXV5); assay: Ki app determination (Waley's method)
# CTX-M-27 = CTX-M-27 (Escherichia coli, UniProt Q840M4); assay: Ki app determination (Waley's method)
# SHV-2 = SHV-2 (Klebsiella pneumoniae, UniProt P0A9Z8); assay: Ki app determination (Waley's method)
# SHV-5 = SHV-5 (Klebsiella pneumoniae, UniProt P0A3M1); assay: Ki app determination (Waley's method)
# SHV-12 = SHV-12 (Klebsiella pneumoniae, UniProt P0A3M1, L31Q); assay: Ki app determination (Waley's method)
# OXA-65 = OXA-65 (Acinetobacter baumannii, UniProt Q58XD3); assay: Ki app determination (Waley's method)
# OXA-66 = OXA-66 (Acinetobacter baumannii, UniProt Q58XD2); assay: Ki app determination (Waley's method)
# OXA-72 = OXA-72 (Acinetobacter baumannii, UniProt Q5XQU0); assay: Ki app determination (Waley's method)
# VIM-1 = VIM-1 (Pseudomonas aeruginosa, UniProt A0A0F7KYQ8); assay: Ki app determination (Waley's method)
# VIM-2 = VIM-2 (Escherichia coli, UniProt Q5U7L7); assay: Ki app determination (Waley's method)
# IMP-1 = IMP-1 (Serratia marcescens, UniProt P52699); assay: Ki app determination (Waley's method)
# IMP-6 = IMP-6 (Serratia marcescens, UniProt P52699, S214G); assay: Ki app determination (Waley's method)
# NDM-1 = NDM-1 (Klebsiella pneumoniae, UniProt C7C422); assay: Ki app determination (Waley's method)
# NDM-4 = NDM-4 (Klebsiella pneumoniae, UniProt C7C422, M154L); assay: Ki app determination (Waley's method)
# NDM-5 = NDM-5 (Klebsiella pneumoniae, UniProt C7C422, M154L/V88L); assay: Ki app determination (Waley's method)
# NDM-6 = NDM-6 (Klebsiella pneumoniae, UniProt C7C422, A233V); assay: Ki app determination (Waley's method)
# NDM-7 = NDM-7 (Klebsiella pneumoniae, UniProt C7C422, D130N/M154L); assay: Ki app determination (Waley's method)
# [1] = system: 207 Enterobacterales including carbapenem-resistant isolates; assay: MIC, broth microdilution; assay type: cell-based
# [2] = system: MEM-nonsusceptible Enterobacterales; assay: MIC, broth microdilution; assay type: cell-based; conditions: MEM-nonsusceptible Enterobacterales (127), cefiderocol 126 isolates
# [3] = system: serine-carbapenemase-producing isolates (Enterobacterales); assay: MIC, broth microdilution; assay type: cell-based; conditions: Enterobacterales with serine-carbapenemases (80)
# [4] = system: MBL-producing isolates (Enterobacterales); assay: MIC, broth microdilution; assay type: cell-based
# [5] = system: 55 isolates of A. baumannii; assay: MIC, broth microdilution; assay type: cell-based, Acinetobacter baumannii; conditions: Acinetobacter baumannii (55)
# 96 P. aeruginosa = assay: MIC, broth microdilution; assay type: cell-based, Pseudomonas aeruginosa; conditions: Pseudomonas aeruginosa (96); for MIC Range / MIC50 / MIC90: fixed concentration (μg/mL) in label
# [6] = system: MEM-, imipenem/relebactam-, and ceftolozane/tazobactam-nonsusceptible P. aeruginosa; assay: MIC, broth microdilution; assay type: cell-based, Pseudomonas aeruginosa
# [7] = system: MEM-nonsusceptible Enterobacterales with serine-carbapenemases; assay: MIC, broth microdilution; assay type: cell-based; conditions: MEM-nonsusceptible Enterobacterales with serine-carbapenemases (58)
# [8] = system: MEM-nonsusceptible Enterobacterales with metallo-carbapenemases; assay: MIC, broth microdilution; assay type: cell-based; conditions: MEM-nonsusceptible Enterobacterales with metallo-carbapenemases (55), cefiderocol 54 isolates
# [9] = All Enterobacterales (207), cefiderocol 205 isolates, CLSI breakpoints, marked c: breakpoints for β-lactam alone, tigecycline: FDA breakpoints
# [10] = All Enterobacterales (207), cefiderocol 205 isolates, fixed concentration (μg/mL) in label
# [11] = CLSI breakpoints, marked c: breakpoints for β-lactam alone, tigecycline: FDA breakpoints
# [12] = fixed concentration (μg/mL) in label
# [13] = fixed concentration (μg/mL) in label, read-out: MIC50
# [14] = fixed concentration (μg/mL) in label, read-out: MIC90
# [15] = Enterobacterales with metallo-carbapenemases (74), cefiderocol 73 isolates, CLSI breakpoints, marked c: breakpoints for β-lactam alone, tigecycline: FDA breakpoints
# [16] = Enterobacterales with metallo-carbapenemases (74), cefiderocol 73 isolates, fixed concentration (μg/mL) in label
# [17] = MEM-nonsusceptible Pseudomonas aeruginosa (76), fixed concentration (μg/mL) in label
# [18] = CLSI breakpoints, marked c: breakpoints for β-lactam alone
# [19] = MEM-nonsusceptible Pseudomonas aeruginosa (76), CLSI breakpoints, marked c: breakpoints for β-lactam alone
molecule,measurement,setting,value
"NC(=O)[C@@H]1CC[C@@H]2CN1C(=O)N2OS(=O)(=O)O [Avibactam, avibactam]",Ki,CTX-M-14,2.35 ± 0.763 nM
same,Ki,CTX-M-15,0.369 ± 0.0569 nM
same,Ki,CTX-M-27,1.29 ± 0.663 nM
same,Ki,SHV-2,2.26 ± 1.44 nM
same,Ki,SHV-5,2.15 ± 0.264 nM
same,Ki,SHV-12,2.55 ± 0.696 nM
same,Ki,OXA-65,5900 nM
same,Ki,OXA-66,7350 nM
same,Ki,OXA-72,691 ± 63.8 nM
same,Ki,VIM-1,> 100000 nM
same,Ki,VIM-2,> 100000 nM
same,Ki,IMP-1,> 100000 nM
same,Ki,IMP-6,> 100000 nM
same,Ki,NDM-1,> 100000 nM
same,Ki,NDM-4,> 100000 nM
same,Ki,NDM-5,> 100000 nM
same,Ki,NDM-6,> 100000 nM
same,Ki,NDM-7,> 100000 nM
CN(C)c1cc(NC(=O)CNC(C)(C)C)c(O)c2c1C[C@H]1C[C@H]3[C@H](N(C)C)C(O)=C(C(N)=O)C(=O)[C@@]3(O)C(O)=C1C2=O [tigecycline],CLSI MIC interpretation I (intermediate),[1]; [9],4.3^d %
same,CLSI MIC interpretation R (resistant),[1]; [9],0.5^d %
same,CLSI MIC interpretation S (susceptible),[1]; [9],95.2^d %
same,MIC Range,[1]; [10],0.12 to 16 µg/mL
same,MIC50,[1]; read-out: MIC50,0.5 µg/mL
same,MIC90,[1]; read-out: MIC90,2 µg/mL
same,CLSI MIC interpretation I (intermediate),[2]; [11],5.5^d %
same,CLSI MIC interpretation R (resistant),[2]; [11],0.8^d %
same,CLSI MIC interpretation S (susceptible),[2]; [11],93.7^d %
same,MIC Range,[2]; [12],0.12 to 16 µg/mL
same,MIC50,[2]; [13],1 µg/mL
same,MIC90,[2]; [14],2 µg/mL
same,CLSI MIC interpretation I (intermediate),[3]; [11],3.8^d %
same,CLSI MIC interpretation R (resistant),[3]; [11],0.0^d %
same,CLSI MIC interpretation S (susceptible),[3]; [11],96.3^d %
same,MIC Range,[3]; [12],0.12 to 4 µg/mL
same,MIC50,[3]; [13],1 µg/mL
same,MIC90,[3]; [14],2 µg/mL
same,CLSI MIC interpretation I (intermediate),[4]; [15],8.1^d %
same,CLSI MIC interpretation R (resistant),[4]; [15],0.0^d %
same,CLSI MIC interpretation S (susceptible),[4]; [15],91.9^d %
same,MIC Range,[4]; [16],0.12 to 4 µg/mL
same,MIC50,"[4]; Enterobacterales with metallo-carbapenemases (74), cefiderocol 73 isolates, fixed concentration (μg/mL) in label, read-out: MIC50",0.5 µg/mL
same,MIC90,"[4]; Enterobacterales with metallo-carbapenemases (74), cefiderocol 73 isolates, fixed concentration (μg/mL) in label, read-out: MIC90",2 µg/mL
same,MIC90,"[4]; MBL-producing isolates, comparators, read-out: MIC90",≤ 4 µg/mL
same,MIC Range,[5]; [12],0.25 to 2 µg/mL
same,MIC50,[5]; [13],1 µg/mL
same,MIC90,[5]; [14],1 µg/mL
same,MIC Range,96 P. aeruginosa,0.5 to 16 µg/mL
same,MIC50,96 P. aeruginosa; read-out: MIC50,4 µg/mL
same,MIC90,96 P. aeruginosa; read-out: MIC90,16 µg/mL
same,MIC Range,"[6]; Imipenem/relebactam-nonsusceptible Pseudomonas aeruginosa (43), fixed concentration (μg/mL) in label",1 to 16 µg/mL
same,MIC Range,[6]; [17],1 to 16 µg/mL
same,MIC50,"[6]; Pseudomonas aeruginosa, Imipenem/relebactam-nonsusceptible Pseudomonas aeruginosa (43), fixed concentration (μg/mL) in label, read-out: MIC50",4 µg/mL
same,MIC90,"[6]; Pseudomonas aeruginosa, Imipenem/relebactam-nonsusceptible Pseudomonas aeruginosa (43), fixed concentration (μg/mL) in label, read-out: MIC90",16 µg/mL
same,MIC50,"[6]; Pseudomonas aeruginosa, MEM-nonsusceptible Pseudomonas aeruginosa (76), fixed concentration (μg/mL) in label, read-out: MIC50",4 µg/mL
same,MIC90,"[6]; Pseudomonas aeruginosa, MEM-nonsusceptible Pseudomonas aeruginosa (76), fixed concentration (μg/mL) in label, read-out: MIC90",16 µg/mL
same,MIC50,"[6]; Pseudomonas aeruginosa, Table 2, broth microdilution, read-out: MIC50",4 µg/mL
same,MIC90,"[6]; Pseudomonas aeruginosa, Table 2, broth microdilution, read-out: MIC90",16 µg/mL
same,MIC Range,"[6]; last subgroup of Table 2 (heading not shown; 45 isolates by the percentages, ceftolozane/tazobactam 0% S), broth microdilution",1 to 16 µg/mL
same,CLSI MIC interpretation I (intermediate),[7]; [11],1.7^d %
same,CLSI MIC interpretation R (resistant),[7]; [11],0.0^d %
same,CLSI MIC interpretation S (susceptible),[7]; [11],98.3^d %
same,MIC Range,[7]; [12],0.12 to 4 µg/mL
same,MIC50,[7]; [13],1 µg/mL
same,MIC90,[7]; [14],2 µg/mL
same,CLSI MIC interpretation I (intermediate),[8]; [11],10.9^d %
same,CLSI MIC interpretation R (resistant),[8]; [11],0.0^d %
same,CLSI MIC interpretation S (susceptible),[8]; [11],89.1^d %
same,MIC Range,[8]; [12],0.12 to 4 µg/mL
same,MIC50,[8]; [13],1 µg/mL
same,MIC90,[8]; [14],4 µg/mL
colistin,CLSI MIC interpretation I (intermediate),[1]; [9],78.3%
same,CLSI MIC interpretation R (resistant),[1]; [9],21.7%
same,MIC50,[1]; [10],0.5 µg/mL
same,MIC90,[1]; [10],>64 µg/mL
same,CLSI MIC interpretation I (intermediate),[2]; [11],77.2%
same,CLSI MIC interpretation R (resistant),[2]; [11],22.8%
same,MIC50,[2]; [12],0.5 µg/mL
same,MIC90,[2]; [12],>64 µg/mL
same,MIC50,[3]; [12],0.5 µg/mL
same,MIC90,[3]; [12],>64 µg/mL
same,CLSI MIC interpretation I (intermediate),[4]; [15],89.2%
same,CLSI MIC interpretation R (resistant),[4]; [15],10.8%
same,MIC50,[4]; [16],0.5 µg/mL
same,MIC90,[4]; [16],4 µg/mL
same,MIC90,"[4]; MBL-producing isolates, comparators",≤ 4 µg/mL
same,CLSI MIC interpretation I (intermediate),[5]; [18],94.5%
same,CLSI MIC interpretation R (resistant),[5]; [18],5.5%
same,MIC50,[5]; [12],1 µg/mL
same,MIC90,[5]; [12],2 µg/mL
same,CLSI MIC interpretation I (intermediate),96 P. aeruginosa; [18],100%
same,CLSI MIC interpretation R (resistant),96 P. aeruginosa; [18],0%
same,MIC50,96 P. aeruginosa,1 µg/mL
same,MIC90,96 P. aeruginosa,1 µg/mL
same,MIC Range,96 P. aeruginosa,0.25 to 2 µg/mL
same,CLSI MIC interpretation I (intermediate),[6],100%
same,CLSI MIC interpretation R (resistant),[6],0%
same,MIC50,[6],1 µg/mL
same,MIC90,[6],1 µg/mL
same,MIC Range,[6],0.5 to 2 µg/mL and 0.25 to 2 µg/mL
same,CLSI MIC interpretation (%) I,"[6]; I, intermediate (including susceptible dose-dependent), CLSI breakpoints, last subgroup of Table 2",100%
same,CLSI MIC interpretation I (intermediate),[6]; [19],100%
same,CLSI MIC interpretation R (resistant),[6]; [19],0%
same,MIC50,[6]; [17],1 µg/mL
same,MIC90,[6]; [17],1 µg/mL
same,MIC Range,[6]; [17],0.25 to 2 µg/mL
same,CLSI MIC interpretation (%) R,"[6]; R, resistant, CLSI breakpoints, last subgroup of Table 2",0%
same,MIC50,"[6]; Table 2, broth microdilution",1 µg/mL
same,MIC90,"[6]; Table 2, broth microdilution",1 µg/mL
same,CLSI MIC interpretation I (intermediate),[7]; [11],74.1%
same,CLSI MIC interpretation R (resistant),[7]; [11],25.9%
same,MIC50,[7]; [12],0.5 µg/mL
same,MIC90,[7]; [12],>64 µg/mL
same,CLSI MIC interpretation R (resistant),[8]; [11],14.5%
same,MIC50,[8]; [12],0.5 µg/mL
same,MIC90,[8]; [12],8 µg/mL
